This passage reports Kd results from article PMC4810224, “Validation of the Target Protein of Insecticidal Dihydroagarofuran Sesquiterpene Polyesters” (Toxins, 2016).

Each structure is given as a SMILES string.

The target in the assay is T1, subunit H of V-ATPase (recombinant subunit H) (Mythimna separata, UniProt A0A0D3L6K4).
T1 construct: full CDS in pET-15b, N-terminal His tag, E. coli BL21 (DE3), Ni-NTA twice, ~55 kDa, free subunit
T1 sequence (A0A0D3L6K4 1-474): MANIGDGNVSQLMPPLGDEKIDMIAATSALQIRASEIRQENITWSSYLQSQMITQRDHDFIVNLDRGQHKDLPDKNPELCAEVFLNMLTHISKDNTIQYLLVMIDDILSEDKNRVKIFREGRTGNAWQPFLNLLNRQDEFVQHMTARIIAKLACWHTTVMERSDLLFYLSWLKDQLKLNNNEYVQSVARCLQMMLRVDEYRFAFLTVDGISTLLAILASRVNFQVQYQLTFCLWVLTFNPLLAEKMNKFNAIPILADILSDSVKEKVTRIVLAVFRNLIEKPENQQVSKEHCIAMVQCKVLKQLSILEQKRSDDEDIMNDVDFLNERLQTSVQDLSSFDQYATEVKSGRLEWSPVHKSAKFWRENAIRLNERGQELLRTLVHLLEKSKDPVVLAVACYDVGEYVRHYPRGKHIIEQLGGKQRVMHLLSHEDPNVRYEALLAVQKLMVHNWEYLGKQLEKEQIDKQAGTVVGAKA
The experiment in a line: microscale thermophoresis (Monolith NT.[…]), RED-NHS labelled protein. It is filed as binding. A general note: In MST a laser heats a spot of the sample, and binding alters the fluorescence response.
Take `CNc1ccccc1C(=O)O[C@@H]1[C@H]2[C@H](OC(=O)C(C)C)[C@@H](OC(=O)c3ccccc3)[C@]3(COC(=O)C(C)C)[C@@H](OC(C)=O)[C@@H](OC(C)=O)C[C@](C)(O)[C@@]13OC2(C)C` [CV-6-N-methylisatoic]: the Kd worked out at 213 µM.

Regarding `CC(=O)O[C@H]1C[C@](C)(O)[C@]23OC(C)(C)[C@H]([C@H](OC(=O)C(C)C)[C@@H](OC(=O)c4ccccc4)[C@]2(COC(=O)C(C)C)[C@H]1OC(C)=O)[C@H]3OC(=O)C(C)N` (stereo partly drawn) [CV-6-α-aminopropanoic acid ester], the Kd came to 144 µM.

Take `CC(=O)O[C@H]1C[C@](C)(O)[C@]23OC(C)(C)[C@H]([C@H](OC(=O)C(C)C)[C@@H](OC(=O)c4ccccc4)[C@]2(COC(=O)C(C)C)[C@H]1OC(C)=O)[C@H]3OC(=O)CN` [CV-6-aminoacetic acid ester]: the Kd is 156 µM.

A word on the Kd: it is the equilibrium constant for the complex coming apart.
